The results in this text go back to paper PMC5832771, “Recognition motif and mechanism of ripening inhibitory peptides in plant hormone receptor ETR1” (Scientific Reports, 2018).

As usually defined, the Kd is a measure of binding affinity in units of concentration. Higher therefore signals lower affinity.

Residues, ends and D or L forms follow the SMILES beside them. No end group written: not given here.

First the molecules themselves.
B1: extended peptide N41P (peptide)
peptide: KDVEMAISSRKGRTGTAAGDVAFPKGKENLASVLKRYKRRL-NH2
notes: source: synthetic peptide, bought: GenScript (TFA salt, >98% HPLC purity)
B2: extended peptide NIP-1 (peptide)
peptide: AFPKGKENLASVLKRYKRRL-NH2
notes: as for B1
B3: extended peptide N30P (peptide)
peptide: GRTGTAAGDVAFPKGKENLASVLKRYKRRL-NH2
notes: as for B1

One experiment deals with T1, AtETR1^1–307 (TM–GAF) (Arabidopsis thaliana, UniProt P49333).
T1 construct: made in house; host or cells: E. coli C43 (DE3)
The experiment can be described thus: biochemical. The format is binding.
Settings: not given
“KDVEMAISSRKGRTGTAAGDVAFPKGKENLASVLKRYKRRL-NH2 [N41P]” registered an equilibrium dissociation constant (Kd) of 30 ± 10 nM.

With `CC(C)C[C@H](NC(=O)[C@H](CCCNC(=N)N)NC(=O)[C@H](CCCNC(=N)N)NC(=O)[C@H](CCCCN)NC(=O)[C@H](Cc1ccc(O)cc1)NC(=O)[C@H](CCCNC(=N)N)NC(=O)[C@H](CCCCN)NC(=O)[C@H](CC(C)C)NC(=O)[C@@H](NC(=O)[C@H](CO)NC(=O)[C@H](C)NC(=O)[C@H](CC(C)C)NC(=O)[C@H](CC(N)=O)NC(=O)[C@H](CCC(=O)O)NC(=O)[C@H](CCCCN)NC(=O)CNC(=O)[C@H](CCCCN)NC(=O)[C@@H]1CCCN1C(=O)[C@H](Cc1ccccc1)NC(=O)[C@H](C)NC(=O)[C@@H](NC(=O)[C@H](CC(=O)O)NC(=O)CNC(=O)[C@H](C)NC(=O)[C@H](C)NC(=O)[C@@H](NC(=O)CNC(=O)[C@@H](NC(=O)[C@H](CCCNC(=N)N)NC(=O)CN)[C@@H](C)O)[C@@H](C)O)C(C)C)C(C)C)C(N)=O` [N30P] (H-GRTGTAAGDVAFPKGKENLASVLKRYKRRL-NH2), the dissociation constant Kd is 57 ± 19 nM.

`CC(C)C[C@H](NC(=O)[C@H](CCCNC(=N)N)NC(=O)[C@H](CCCNC(=N)N)NC(=O)[C@H](CCCCN)NC(=O)[C@H](Cc1ccc(O)cc1)NC(=O)[C@H](CCCNC(=N)N)NC(=O)[C@H](CCCCN)NC(=O)[C@H](CC(C)C)NC(=O)[C@@H](NC(=O)[C@H](CO)NC(=O)[C@H](C)NC(=O)[C@H](CC(C)C)NC(=O)[C@H](CC(N)=O)NC(=O)[C@H](CCC(=O)O)NC(=O)[C@H](CCCCN)NC(=O)CNC(=O)[C@H](CCCCN)NC(=O)[C@@H]1CCCN1C(=O)[C@H](Cc1ccccc1)NC(=O)[C@H](C)N)C(C)C)C(N)=O` [NIP-1] (H-AFPKGKENLASVLKRYKRRL-NH2) registered a Kd of 68 ± 15 nM.

The next experiment has as its target T2, AtETR1^1–307 (TM–GAF) (Arabidopsis thaliana, UniProt P49333 1-307, Alexa Fluor 488 C5 maleimide (thiol-reactive) label).
T2 construct: pTEV-16b: N-terminal His10, linker SSGH, TEV site ENLYFQG; no cleavage described; source: E. coli C43 (DE3), purified (membranes solubilised in fos-choline-16, Ni-NTA HisTrap)
T2 sequence (looked up): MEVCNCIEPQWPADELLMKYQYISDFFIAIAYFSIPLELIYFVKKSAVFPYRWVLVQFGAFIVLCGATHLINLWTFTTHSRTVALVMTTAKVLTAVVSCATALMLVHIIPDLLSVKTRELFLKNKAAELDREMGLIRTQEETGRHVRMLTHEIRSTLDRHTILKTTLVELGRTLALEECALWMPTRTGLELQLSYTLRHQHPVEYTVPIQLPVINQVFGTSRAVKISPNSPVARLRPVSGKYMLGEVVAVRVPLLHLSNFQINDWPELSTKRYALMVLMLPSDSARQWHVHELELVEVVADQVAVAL
The experiment is described as follows: MST; Alexa Fluor 488-labelled AtETR1 construct at 25 nM, peptide titrated; 50 mM Tris/HCl pH 8.0, 300 mM NaCl, 0.15 g/L fos-choline-16; 23-25 °C; temperature jump evaluated, one-binding-site model. Particulars: both partners purified.
As to B1, the binding result is “binds”.

Take B2: the binding result is on record as “binds”.

B3: the binding result is listed as “binds”.
